Experimental data reported in patent US8299085B2, “Quinazoline derivatives” (Novartis AG, priority 2004, dated 2012).

melting point | SMILES
> 300 °C | CS(=O)(=O)Nn1c(=O)[nH]c2cc([N+](=O)[O-])c(-n3cnc(CO)c3)cc2c1=O [Example 2, N-[6-(4-Hydroxymethyl-imidazol-1-yl)-7-nitro-2,4-dioxo-1,4-dihydro-2H-quinazolin-3-yl]-methanesulfonamide]
110 °C (dec.) | CS(=O)(=O)Nn1c(=O)[nH]c2cc([N+](=O)[O-])c(NCC(O)c3cccs3)cc2c1=O (centres unmarked) [Example 6, N-[6-(2-Hydroxy-2-thiophen-2-yl-ethylamino)-7-nitro-2,4-dioxo-1,4-dihydro-2H-quinazolin-3-yl]-methanesulfonamide]
> 280 °C | COc1cc2c(=O)n(NS(C)(=O)=O)c(=O)[nH]c2cc1[N+](=O)[O-] [Example 15, N-(6-Methoxy-7-nitro-2,4-dioxo-1,4-dihydro-2H-quinazolin-3-yl)-methanesulfonamide]
185 to 195 °C | CCS(=O)(=O)Nn1c(=O)[nH]c2cc(C(F)(F)F)c(-n3cnnc3)cc2c1=O [Example 70, Ethanesulfonic acid (2,4-dioxo-6-[1,2,4]triazol-4-yl-7-trifluoromethyl-1,4-dihydro-2H-quinazolin-3-yl)-amide]
267 to 270 °C | CCOC(=O)c1ncn(-c2cc3c(=O)n(NS(C)(=O)=O)c(=O)[nH]c3cc2C(F)(F)F)n1 [Example 71, 1-(3-Methanesulfonylamino-2,4-dioxo-7-trifluoromethyl-1,2,3,4-tetrahydro-quinazolin-6-yl)-1H-[1,2,4]triazole-3-carboxylic acid ethyl ester]
257 to 260 °C | CNC(=O)c1ncn(-c2cc3c(=O)n(NS(C)(=O)=O)c(=O)[nH]c3cc2C(F)(F)F)n1 [Example 72, 1-(3-Methanesulfonylamino-2,4-dioxo-7-trifluoromethyl-1,2,3,4-tetrahydro-quinazolin-6-yl)-1H-[1,2,4]triazole-3-carboxylic acid methylamide]
285 to 301 °C (dec.) | CS(=O)(=O)Nn1c(=O)[nH]c2cc(C(F)(F)F)c(-n3ccnc3)cc2c1=O [Example 73, N-(6-Imidazol-1-yl-2,4-dioxo-7-trifluoromethyl-1,4-dihydro-2H-quinazolin-3-yl)-methanesulfonamide]
245 to 260 °C (dec.) | CS(=O)(=O)Nn1c(=O)[nH]c2cc(C(F)(F)F)c(N3CCSCC3)cc2c1=O [Example 74, N-(2,4-Dioxo-6-thiomorpholin-4-yl-7-trifluoromethyl-1,4-dihydro-2H-quinazolin-3-yl)-methanesulfonamide]
249 to 261 °C (dec.) | CS(=O)(=O)Nn1c(=O)[nH]c2cc(C(F)(F)F)c(N3CCC(F)(F)CC3)cc2c1=O [Example 76, N-[6-(4,4-Difluoro-piperidin-1-yl)-2,4-dioxo-7-trifluoromethyl-1,4-dihydro-2H-quinazolin-3-yl]-methanesulfonamide]
253 to 262 °C | CS(=O)(=O)Nn1c(=O)[nH]c2cc(C(F)(F)F)c(N3CCC4(CC3)OCCO4)cc2c1=O [Example 77, N-[6-(1,4-Dioxa-8-aza-spiro[4.5]dec-8-yl)-2,4-dioxo-7-trifluoromethyl-1,4-dihydro-2H-quinazolin-3-yl]-methanesulfonamide]
238 to 242 °C | CS(=O)(=O)Nn1c(=O)[nH]c2cc(C(F)(F)F)c(N3CCC(=O)CC3)cc2c1=O [Example 78, N-[2,4-Dioxo-6-(4-oxo-piperidin-1-yl)-7-trifluoromethyl-1,4-dihydro-2H-quinazolin-3-yl]-methanesulfonamide]
266 to 283 °C | CS(=O)(=O)Nn1c(=O)[nH]c2cc(C(F)(F)F)c(N3CCC3)cc2c1=O [Example 79, N-(6-Azetidin-1-yl-2,4-dioxo-7-trifluoromethyl-1,4-dihydro-2H-quinazolin-3-yl)-methanesulfonamide]
194 to 196 °C | CS(=O)(=O)Nn1c(=O)[nH]c2cc(C(F)(F)F)c(Oc3cccnc3)cc2c1=O [Example 80, N-[2,4-Dioxo-6-(pyridin-3-yloxy)-7-trifluoromethyl-1,4-dihydro-2H-quinazolin-3-yl]-methanesulfonamide]
254 to 272 °C | CN(C)c1cc2c(=O)n(NS(C)(=O)=O)c(=O)[nH]c2cc1C(F)(F)F [Example 81, N-(6-Dimethylamino-2,4-dioxo-7-trifluoromethyl-1,4-dihydro-2H-quinazolin-3-yl)-methanesulfonamide]
240 to 246 °C | CS(=O)(=O)Nn1c(=O)[nH]c2cc(C(F)(F)F)c(NCCO)cc2c1=O [Example 82, N-[6-(2-Hydroxy-ethylamino)-2,4-dioxo-7-trifluoromethyl-1,4-dihydro-2H-quinazolin-3-yl]-methanesulfonamide]
293 to 294 °C | COc1ccc(-c2cn(-c3cc4c(=O)n(NS(C)(=O)=O)c(=O)[nH]c4cc3C(F)(F)F)cn2)cc1 [Example 84, N-{6-[4-(4-Methoxy-phenyl)-imidazol-1-yl]-2,4-dioxo-7-trifluoromethyl-1,4-dihydro-2H-quinazolin-3-yl}-methanesulfonamide]
252 to 257 °C | COCc1ccc(-c2cn(-c3cc4c(=O)n(NS(C)(=O)=O)c(=O)[nH]c4cc3C(F)(F)F)cn2)cc1 [Example 85, N-{6-[4-(4-Methoxymethyl-phenyl)-imidazol-1-yl]-2,4-dioxo-7-trifluoromethyl-1,4-dihydro-2H-quinazolin-3-yl}-methanesulfonamide]
287 to 288 °C | COC(=O)c1cn(-c2cc3c(=O)n(NS(C)(=O)=O)c(=O)[nH]c3cc2C(F)(F)F)cn1 [Example 88, 1-(3-methanesulfonylamino-2,4-dioxo-7-trifluoromethyl-1,2,3,4-tetrahydro-quinazolin-6-yl)-1H-imidazole-4-carboxylic acid methyl ester]
284 to 286 °C | CN(C)C(=O)c1cn(-c2cc3c(=O)n(NS(C)(=O)=O)c(=O)[nH]c3cc2C(F)(F)F)cn1 [Example 90, 1-(3-Methanesulfonylamino-2,4-dioxo-7-trifluoromethyl-1,2,3,4-tetrahydro-quinazolin-6-yl)-1H-imidazole-4-carboxylic acid dimethylamide]
292 to 295 °C | CNC(=O)c1cn(-c2cc3c(=O)n(NS(C)(=O)=O)c(=O)[nH]c3cc2C(F)(F)F)cn1 [Example 91, 1-(3-Methanesulfonylamino-2,4-dioxo-7-trifluoromethyl-1,2,3,4-tetrahydro-quinazolin-6-yl)-1H-imidazole-4-carboxylic acid methylamide]
225 to 230 °C | CS(=O)(=O)Nn1c(=O)[nH]c2cc(C(F)(F)F)c(-n3cnc(CO)c3)cc2c1=O [Example 93, N-[6-(4-Hydroxymethyl-imidazol-1-yl)-2,4-dioxo-7-trifluoromethyl-1,4-dihydro-2H-quinazolin-3-yl]-methanesulfonamide]
229 to 233 °C | CS(=O)(=O)Nn1c(=O)[nH]c2cc(C(F)(F)F)c(-n3cnc(Br)c3)cc2c1=O [Example 95, N-[6-(4-Bromo-imidazol-1-yl)-2,4-dioxo-7-trifluoromethyl-1,4-dihydro-2H-quinazolin-3-yl]-methanesulfonamide]
144 to 147 °C | CS(=O)(=O)Nn1c(=O)[nH]c2cc(C(F)(F)F)c(-n3cnc(C(F)(F)F)c3)cc2c1=O [Example 96, N-[6-(4-Trifluoromethyl-imidazol-1-yl)-2,4-dioxo-7-trifluoromethyl-1,4-dihydro-2H-quinazolin-3-yl]-methanesulfonamide]
